Measurements: ChEMBL document CHEMBL1130792, “Studies on an immunosuppressive macrolactam, ascomycin: synthesis of a C-33 hydroxyl derivative” (Bioorg Med Chem Lett, 1998)
≈ marks a conversion by molar mass, not a printed value.

Assays:
[1] = Distribution coefficient (Log D) value at pH 6.5; type: physicochemical; settings: octanol/water, read-out: LogD6.5
[2] = Distribution coefficent (Log D) value at pH 7.4; type: physicochemical; settings: read-out: LogD7.4
[3] = Solubility at pH 6.5; type: physicochemical; settings: buffer
[4] = Solubility at pH 7.4; type: physicochemical; settings: buffer
[5] = species: Homo sapiens; assay: Compound was tested in vitro for inhibition of human mixed lymphocyte proliferation (HuMLR); type: functional
[6] = tested on: Rattus norvegicus; assay: Compound was tested in vivo for immunosuppressive activity using rat popliteal lymph node (rPLN) hyperplasia assay; type: functional
[7] = species: Homo sapiens; assay: Compound was tested in vitro for inhibitory activity against human FKBP; type: functional
[8] = tested on: Rattus norvegicus; assay: Compound was tested in vivo for immunosuppressive activity using rat popliteal lymph node (rPLN) hyperplasia assay at 3 mg/kg; type: functional
[9] = Compound was tested in vitro for inhibitory activity against human FK506 binding protein

| SMILES | logD [1] | logD [2] | solubility ([3]; read-out: Solubility) [µg/mL] | solubility [4] [µg/mL] | IC50 [5] [nM] | ED50 [6] [mg/kg] | IC50 [7] [nM] | inhibition in vivo at 3 mg/kg [8] [%] | solubility [3] [µg/mL] | IC50 [9] [nM] |
| --- | --- | --- | --- | --- | --- | --- | --- | --- | --- | --- |
| CC[C@@H]1/C=C(\C)C[C@H](C)C[C@H](OC)[C@H]2O[C@@](O)(C(=O)C(=O)N3CCCC[C@H]3C(=O)O[C@H](/C(C)=C/[C@@H]3C[C@@H](O)[C@@H](O)[C@H](OC)C3)[C@H](C)[C@@H](O)CC1=O)[C@H](C)C[C@@H]2OC | 3.6 | 3.4 | 464 (≈ 574 µM) | 455 (≈ 563 µM) | 0.17 | 0.72 | 1.21 |  |  |  |
| CC[C@@H]1/C=C(\C)C[C@H](C)C[C@H](OC)[C@H]2O[C@@](O)(C(=O)C(=O)N3CCCC[C@H]3C(=O)O[C@H](/C(C)=C/[C@@H]3CC[C@@H](OC)[C@H](O)C3O)[C@H](C)[C@@H](O)CC1=O)[C@H](C)C[C@@H]2OC (stereo partly drawn) | 3.9 | 3.9 | 294 (≈ 364 µM) | 245 (≈ 303 µM) | 0.72 |  | 39.2 | 36 |  |  |
| CC[C@@H]1/C=C(\C)C[C@H](C)C[C@H](OC)[C@H]2O[C@@](O)(C(=O)C(=O)N3CCCC[C@H]3C(=O)O[C@H](/C(C)=C/[C@@H]3CC[C@@H](O)[C@H](OC)C3)[C@H](C)[C@@H](O)CC1=O)[C@H](C)C[C@@H]2OC [ASCOMYCIN] | 3.98 | 4.22 |  | 4.2 (≈ 5.3 µM) | 0.25 | 0.31 | 2.06 |  | 1.6 (≈ 2.02 µM) |  |
| C=CC[C@@H]1/C=C(\C)C[C@H](C)C[C@H](OC)[C@H]2O[C@@](O)(C(=O)C(=O)N3CCCC[C@H]3C(=O)O[C@H](/C(C)=C/[C@@H]3CC[C@@H](O)[C@H](OC)C3)[C@H](C)[C@@H](O)CC1=O)[C@H](C)C[C@@H]2OC [TACROLIMUS ANHYDROUS] | 4.36 | 4.38 | 1 (≈ 1.24 µM) | 5.2 (≈ 6.47 µM) | 0.37 | 0.15 |  |  |  | 2.54 |
